Measurements as given in patent US20240408093A1, “HETEROBIFUNCTIONAL COMPOUNDS AND THEIR USE IN TREATING DISEASE” (HALDA THERAPEUTICS OPCO, INC., priority 2022, published 2024).
Where two headings read alike, the source gives them in different places. Values belong to the compound of their own block, whether it stands above or below them.

Columns and labels:
Assay type in all cases: cell-based
[1] = system: GSPT1; assay: Payload release assay (DC50 readout), GSPT1 degradation in the presence of recombinant target protein; details: I-series compounds (GSPT1 readout inferred)
[2] = system: HeLa cells (ATCC CCL-2); assay: Cellular growth inhibition assay, HeLa cells (Example 16); details: Homo sapiens, 72 hours, CellTiter-Glo 2.0
[3] = target: T1, GSPT1 (Homo sapiens, UniProt P15170+Q96SW2); assay: GSPT1 HiBiT degradation assay; details: HEK293 LgBiT GSPT1 HiBiT cells, 6 hours
T1 construct: host or cells: HEK293 LgBiT / GSPT1 HiBiT CRISPR knock-in
In short: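 HEK293 CRISPR knock-in cells expressing LgBiT and GSPT1-HiBiT were seeded at 1000 cells/well and, after 18-24 h, treated with titrated compound plus endurazine (0.5× final) at 37 °C. Luminescence read after 6 h; loss of signal reflects GSPT1 degradation, giving DC50.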

[4] = system: HEK293 cells (ATCC CRL-1573); assay: Cellular growth inhibition assay, HEK293 cells (Example 16); details: Homo sapiens, 72 hours, CellTiter-Glo 2.0
[5] = 0 μM recombinant KRAS G12C, read-out: DC50 at 0 μM KRAS G12C
[6] = 5 μM recombinant KRAS G12C, read-out: DC50 at 5 μM KRAS G12C

T1 sequence (P15170 whole entry): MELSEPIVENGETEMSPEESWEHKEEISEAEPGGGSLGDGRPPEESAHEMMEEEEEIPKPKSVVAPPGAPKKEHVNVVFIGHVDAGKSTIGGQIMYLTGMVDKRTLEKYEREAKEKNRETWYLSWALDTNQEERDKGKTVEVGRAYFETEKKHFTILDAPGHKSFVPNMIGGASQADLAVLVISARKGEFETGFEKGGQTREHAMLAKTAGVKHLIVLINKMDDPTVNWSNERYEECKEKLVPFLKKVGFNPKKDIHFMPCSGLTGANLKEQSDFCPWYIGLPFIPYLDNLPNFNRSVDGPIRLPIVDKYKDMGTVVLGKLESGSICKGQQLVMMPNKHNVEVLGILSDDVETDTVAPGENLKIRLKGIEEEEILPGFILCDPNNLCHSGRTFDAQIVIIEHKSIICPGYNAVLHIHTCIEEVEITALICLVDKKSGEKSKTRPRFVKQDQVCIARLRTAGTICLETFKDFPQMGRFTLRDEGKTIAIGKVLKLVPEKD
T1 sequence (Q96SW2 whole entry): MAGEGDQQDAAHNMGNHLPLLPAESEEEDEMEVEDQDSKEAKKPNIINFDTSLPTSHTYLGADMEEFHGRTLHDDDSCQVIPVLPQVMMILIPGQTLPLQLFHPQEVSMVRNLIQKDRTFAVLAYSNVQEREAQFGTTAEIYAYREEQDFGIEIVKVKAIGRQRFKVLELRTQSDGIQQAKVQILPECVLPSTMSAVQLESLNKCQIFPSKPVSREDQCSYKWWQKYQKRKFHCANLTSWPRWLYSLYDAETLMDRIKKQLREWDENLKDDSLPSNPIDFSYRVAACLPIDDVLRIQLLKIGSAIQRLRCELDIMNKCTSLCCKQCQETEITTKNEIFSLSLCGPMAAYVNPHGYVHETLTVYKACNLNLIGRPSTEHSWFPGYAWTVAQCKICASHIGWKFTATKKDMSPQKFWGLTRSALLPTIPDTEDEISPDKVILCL
T1 sequence (Q16531 whole entry partner): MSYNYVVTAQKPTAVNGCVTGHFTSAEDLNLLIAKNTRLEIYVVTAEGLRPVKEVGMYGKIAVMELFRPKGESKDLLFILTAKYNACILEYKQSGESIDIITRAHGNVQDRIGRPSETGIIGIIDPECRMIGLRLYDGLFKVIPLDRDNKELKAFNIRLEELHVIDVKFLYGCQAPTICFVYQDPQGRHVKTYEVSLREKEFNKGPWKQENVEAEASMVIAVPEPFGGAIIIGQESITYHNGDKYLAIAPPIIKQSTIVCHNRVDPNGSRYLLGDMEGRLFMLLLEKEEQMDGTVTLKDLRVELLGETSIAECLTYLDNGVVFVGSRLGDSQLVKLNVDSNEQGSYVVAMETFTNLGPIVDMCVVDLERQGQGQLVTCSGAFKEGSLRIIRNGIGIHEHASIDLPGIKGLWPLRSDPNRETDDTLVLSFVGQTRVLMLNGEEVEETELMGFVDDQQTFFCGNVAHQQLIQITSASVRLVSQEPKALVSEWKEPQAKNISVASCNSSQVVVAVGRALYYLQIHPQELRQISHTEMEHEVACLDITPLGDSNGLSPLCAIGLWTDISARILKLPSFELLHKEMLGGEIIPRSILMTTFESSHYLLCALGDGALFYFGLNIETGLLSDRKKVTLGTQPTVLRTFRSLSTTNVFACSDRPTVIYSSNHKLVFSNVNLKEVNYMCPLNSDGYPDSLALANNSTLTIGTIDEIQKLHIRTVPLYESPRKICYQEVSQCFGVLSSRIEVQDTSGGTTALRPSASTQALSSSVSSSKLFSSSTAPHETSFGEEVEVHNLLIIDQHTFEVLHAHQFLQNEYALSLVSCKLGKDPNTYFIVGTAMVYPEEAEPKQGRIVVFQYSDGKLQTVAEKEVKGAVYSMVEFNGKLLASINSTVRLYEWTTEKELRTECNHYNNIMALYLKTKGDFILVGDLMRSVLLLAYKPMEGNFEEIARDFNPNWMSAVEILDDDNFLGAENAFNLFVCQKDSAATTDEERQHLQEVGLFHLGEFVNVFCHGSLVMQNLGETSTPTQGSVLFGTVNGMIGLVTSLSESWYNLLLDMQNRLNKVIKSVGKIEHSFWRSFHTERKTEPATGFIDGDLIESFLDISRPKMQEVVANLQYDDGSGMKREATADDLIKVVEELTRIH

SMILES: C=C(COc1cc(NC(=O)NCc2ccc3c(c2)CN(C2CCC(=O)NC2=O)C3=O)cc(C(F)(F)F)c1)C(=O)N1CC2(CC(n3nc(-c4ccc5c(cnn5C)c4)c(-c4c(Cl)c(C)cc5[nH]ncc45)c3C)C2)C1 (stereo not drawn) [Compound I-77]
DC50 [1, 5]: < 250 nM
DC50 [1, 6]: < 250 nM
GI50 [2]: > 10000 nM
DC50 [3]: 50 to 500 nM
GI50 [4]: 500 to 1500 nM

SMILES: C=C(COc1cc(Cl)cc(NC(=O)NCc2ccc3c(c2)CN(C2CCC(=O)NC2=O)C3=O)c1F)C(=O)N1CCN(c2nc(OC[C@@H]3CCCN3C)nc3c2CCN(c2cccc4cccc(Cl)c24)C3)C[C@@H]1CC#N (stereo partly drawn) [Compound I-84]
DC50 [1, 5]: < 250 nM
DC50 [1, 6]: < 250 nM
GI50 [2]: 1500 to 10000 nM
DC50 [3]: 50 to 500 nM
GI50 [4]: < 500 nM

SMILES: C=C(COc1cc(NC(=O)NCc2ccc3c(c2F)CN(C2CCC(=O)NC2=O)C3=O)cc(C(F)(F)F)c1)C(=O)N1CCN(c2nc(OC[C@@H]3CCCN3C)nc3c2CCN(c2cccc4cccc(Cl)c24)C3)C[C@@H]1CC#N (stereo partly drawn) [Compound I-85]
DC50 [1, 5]: 250 to 5000 nM
DC50 [1, 6]: < 250 nM
GI50 [2]: > 10000 nM
DC50 [3]: 50 to 500 nM
GI50 [4]: 1500 to 10000 nM

SMILES: C=C(COc1c(Cl)cccc1NC(=O)NCc1ccc2c(c1)CN(C1CCC(=O)NC1=O)C2=O)C(=O)N1CCN(c2nc(OC[C@@H]3CCCN3C)nc3c2CCN(c2cccc4cccc(Cl)c24)C3)C[C@@H]1CC#N (stereo partly drawn) [Compound I-86]
DC50 [1, 5]: < 250 nM
DC50 [1, 6]: < 250 nM
GI50 [2]: 500 to 1500 nM
DC50 [3]: < 50 nM
GI50 [4]: < 500 nM

DC50 ([1]; 0 μM recombinant EGFR T790M L858R, read-out: DC50 at 0 μM EGFR T790M L858R): < 250 nM
DC50 ([1]; 0 μM recombinant EGFR WT, read-out: DC50 at 0 μM EGFR WT): < 250 nM
GI50 [2]: < 500 nM
DC50 [3]: 50 to 500 nM
SMILES: C=C(CN1C(=O)CCC(N2Cc3cc(CNC(=O)Nc4ccc(C)c(Cl)c4)ccc3C2=O)C1=O)C(=O)Nc1cc(Nc2ncc(-c3cn(C)c4ccccc34)cn2)c(OC)cc1N(C)CCN(C)C (stereo not drawn) [Compound I-87]
GI50 [4]: < 500 nM

SMILES: C=C(COc1cc(C(F)(F)F)c(Cl)cc1NC(=O)NCc1ccc2c(c1)CN(C1CCC(=O)NC1=O)C2=O)C(=O)N1CCN(c2nc(OC[C@@H]3CCCN3C)nc3c2CCN(c2cccc4cccc(Cl)c24)C3)C[C@@H]1CC#N (stereo partly drawn) [Compound I-88]
DC50 [1, 5]: < 250 nM
DC50 [1, 6]: < 250 nM
GI50 [2]: 500 to 1500 nM
DC50 [3]: < 50 nM
GI50 [4]: < 500 nM

SMILES: C=C(COc1cc(NC(=O)NCc2ccc3c(c2)CN(C2CCC(=O)NC2=O)C3=O)ccc1OC)C(=O)N1CCN(c2nc(OC[C@@H]3CCCN3C)nc3c2CCN(c2cccc4cccc(Cl)c24)C3)C[C@@H]1CC#N (stereo partly drawn) [Compound I-89]
DC50 [1, 5]: 250 to 5000 nM
DC50 [1, 6]: > 10000 nM
GI50 [2]: > 10000 nM
DC50 [3]: 500 to 2500 nM
GI50 [4]: > 10000 nM

SMILES: C=C(COc1c(CNC(=O)Nc2ccc(C)c(Cl)c2)ccc2c1CN(C1CCC(=O)NC1=O)C2=O)C(=O)N1CCN(c2nc(OC[C@@H]3CCCN3C)nc3c2CCN(c2cccc4cccc(Cl)c24)C3)C[C@@H]1CC#N (stereo partly drawn) [Compound I-90]
DC50 [1, 5]: < 250 nM
DC50 [1, 6]: < 250 nM
GI50 [2]: > 10000 nM
DC50 [3]: 50 to 500 nM
GI50 [4]: < 500 nM

SMILES: C=C(COc1cc(Cl)cc(NC(=O)NCc2ccc3c(c2F)CN(C2CCC(=O)NC2=O)C3=O)c1)C(=O)N1CCN(c2nc(OC[C@@H]3CCCN3C)nc3c2CCN(c2cccc4cccc(Cl)c24)C3)C[C@@H]1CC#N (stereo partly drawn) [Compound I-116]
DC50 [1, 5]: 250 to 5000 nM
DC50 [1, 6]: < 250 nM
GI50 [2]: > 10000 nM
DC50 [3]: 500 to 2500 nM
GI50 [4]: 1500 to 10000 nM
